Experimental findings from ChEMBL document CHEMBL1151639, “Antibacterial sesquiterpene aryl esters from Armillaria mellea” (J Nat Prod, 1985) are described below.

The source made the active and inactive calls. No cut-off for these calls is given here.

Holding throughout (assay type): functional, organism-based
The subject of one assay is Pseudomonas aeruginosa. Briefly: Antibacterial activity against Pseudomonas aeruginosa.
The next assay has as its system Bacillus subtilis. As to the kind of experiment: Antibacterial activity against Bacillus subtilis 5262 ATCC 6633.
In the next assay the test system is Staphylococcus aureus. As to the kind of experiment: Antibacterial activity against Staphylococcus aureus 209P ATCC 53156.
Another assay deals with Escherichia coli. As to the kind of experiment: Antibacterial activity against Escherichia coli.

`CO[C@]12C(C=O)=C[C@@H]3CC(C)(C)C[C@@H]3[C@@]1(C)C[C@H]2OC(=O)c1c(C)cc(O)cc1O`: the result in the assay on Pseudomonas aeruginosa and with Escherichia coli was inactive. Besides, the outcome with Bacillus subtilis and in the assay with Staphylococcus aureus was Active.
